In patent publication US20100179122A1 (priority 2005, published 2010):
Where two headings read alike, the source gives them in different places.

System: acute HIV infection of T-lymphoid cells
Test: Assay for inhibition of HIV replication (spread assay)
Format: cell-based
Conditions: read-out: IC95, spread assay
Procedure: An assay for the inhibition of acute HIV infection of T-lymphoid cells (alternatively referred to herein as the “spread assay”) was conducted in accordance with Vacca, J. P. et al., Proc. Natl. Acad. Sci. USA 1994, 91: 4096. […] The compounds set forth in the other Examples were not tested in the spread assay.

[1] = Human immunodeficiency virus 1, inhibition of acute HIV infection of T-lymphoid cells

SMILES | IC95 [1] [nM] | IC95 (Human immunodeficiency virus 1, T-lymphoid) [nM]
O=C(COCc1ccccc1)Nc1[nH]c2ccc(Cl)cc2c1S(=O)(=O)c1ccccc1 [Example 6, 2-(benzyloxy)-N-[5-chloro-3-(phenylsulfonyl)-1H-indol-2-yl]acetamide] | < 1000 | 
CCC(=O)Nc1[nH]c2ccc(Cl)cc2c1S(=O)(=O)c1ccccc1 [Example 7, N-[5-chloro-3-(phenylsulfonyl)-1H-indol-2-yl]propanamide] | < 1000 | 
O=C(Nc1[nH]c2ccc(Cl)cc2c1S(=O)(=O)c1ccccc1)C1CCC1 [Example 9, N-[5-chloro-3-(phenylsulfonyl)-1H-indol-2-yl]cyclobutanecarboxamide] | < 1000 | 
O=C(CNC1CC1)Nc1[nH]c2ccc(Cl)cc2c1S(=O)(=O)c1ccccc1 [Example 12, N^1-[5-chloro-3-(phenylsulfonyl)-1H-indol-2-yl]-N^2-cyclopropylglycinamide] | < 1000 | 
O=C(Cc1ccc(F)cc1)Nc1[nH]c2ccc(Cl)cc2c1S(=O)(=O)c1ccccc1 [Example 16, N-[5-chloro-3-(phenylsulfonyl)-1H-indol-2-yl]-2-(4-fluorophenyl)acetamide] | < 1000 | 
O=C(CN1CCCC(F)(F)C1)Nc1[nH]c2ccc(Cl)cc2c1S(=O)(=O)c1ccccc1 [Example 17, N-[5-chloro-3-(phenylsulfonyl)-1H-indol-2-yl]-2-(3,3-difluoropiperidin-1-yl)acetamide] | < 1000 | 
O=C(Nc1[nH]c2ccc(Cl)cc2c1S(=O)(=O)c1ccccc1)c1ccc(F)cc1F [Example 18, N-[5-chloro-3-(phenylsulfonyl)-1H-indol-2-yl]-2,4-difluorobenzamide] | < 1000 | 
O=C(Nc1[nH]c2ccc(Cl)cc2c1S(=O)(=O)c1ccccc1)c1ccccc1F [Example 19, N-[5-chloro-3-(phenylsulfonyl)-1H-indol-2-yl]-2-fluorobenzamide] | < 1000 | 
O=C(Nc1[nH]c2ccc(Cl)cc2c1S(=O)(=O)c1ccccc1)c1ccncc1 [Example 20, N-[5-chloro-3-(phenylsulfonyl)-1H-indol-2-yl]isonicotinamide] | < 1000 | 
Cc1ccoc1C(=O)Nc1[nH]c2ccc(Cl)cc2c1S(=O)(=O)c1ccccc1 [Example 24, N-[5-chloro-3-(phenylsulfonyl)-1H-indol-2-yl]-3-methyl-2-furamide] | < 1000 | 
O=C(Nc1[nH]c2ccc(Cl)cc2c1S(=O)(=O)c1ccccc1)c1cccc(F)c1 [Example 25, N-[5-chloro-3-(phenylsulfonyl)-1H-indol-2-yl]-3-fluorobenzamide] | < 1000 | 
CCOC(=O)CNC(=O)Nc1[nH]c2ccc(Cl)cc2c1S(=O)(=O)c1ccccc1 [Example 27, ethyl N-({[5-chloro-3-(phenylsulfonyl)-1H-indol-2-yl]amino}carbonyl)glycinate] | < 1000 | 
O=C(Nc1[nH]c2ccc(Cl)cc2c1S(=O)(=O)c1ccccc1)c1ccccc1 [Example 28, N-[5-chloro-3-(phenylsulfonyl)-1H-indol-2-yl]benzamide] | < 1000 | 
O=C(Nc1cccc(F)c1)Nc1[nH]c2ccc(Cl)cc2c1S(=O)(=O)c1ccccc1 [Example 29, N-[5-chloro-3-(phenylsulfonyl)-1H-indol-2-yl]-N′-(3-fluorophenyl)urea] | < 1000 | 
COCC(=O)Nc1[nH]c2ccc(Cl)cc2c1S(=O)(=O)c1ccccc1 [Example 34, N-[5-chloro-3-(phenylsulfonyl)-1H-indol-2-yl]-2-methoxyacetamide] | < 1000 | 
O=C(Nc1ccccc1)Nc1[nH]c2ccc(Cl)cc2c1S(=O)(=O)c1ccccc1 [Example 35, N-[5-chloro-3-(phenylsulfonyl)-1H-indol-2-yl]-N′-phenylurea] | < 1000 | 
O=C(Nc1ccccc1C(F)(F)F)Nc1[nH]c2ccc(Cl)cc2c1S(=O)(=O)c1ccccc1 [Example 41, N-[5-chloro-3-(phenylsulfonyl)-1H-indol-2-yl]-N′-[2-(trifluoromethyl)phenyl]urea] | < 1000 | 
Cn1ccnc1CNCC(=O)Nc1[nH]c2ccc(Cl)cc2c1S(=O)(=O)c1ccccc1 [Example 42, N^1-[5-chloro-3-(phenylsulfonyl)-1H-indol-2-yl]-N^2-[(1-methyl-1H-imidazol-2-yl)methyl]glycinamide] | < 1000 | 
Cc1cccc(CNC(=O)Nc2[nH]c3ccc(Cl)cc3c2S(=O)(=O)c2ccccc2)c1 [Example 43, N-[5-chloro-3-(phenylsulfonyl)-1H-indol-2-yl]-N′-(3-methylbenzyl)urea] | < 1000 | 
O=C(Nc1[nH]c2ccc(Cl)cc2c1S(=O)(=O)c1ccccc1)NC1CCCC1 [Example 44, N-[5-chloro-3-(phenylsulfonyl)-1H-indol-2-yl]-N′-cyclopentylurea] | < 1000 | 
CC1(CNCC(=O)Nc2[nH]c3ccc(Cl)cc3c2S(=O)(=O)c2ccccc2)COC1 [Example 45, N^1-[5-chloro-3-(phenylsulfonyl)-1H-indol-2-yl]-N^2-[(3-methyloxetan-3-yl)methyl]glycinamide] | < 1000 | 

SMILES | IC95 [1] [nM] | IC95 (Human immunodeficiency virus 1, T-lymphoid) [nM]
CCC(C)NC(=O)Nc1[nH]c2ccc(Cl)cc2c1S(=O)(=O)c1ccccc1 (centres unmarked) [Example 46, N-(sec-butyl)-N′-[5-chloro-3-(phenylsulfonyl)-1H-indol-2-yl]urea] | < 1000 | 
O=C(Nc1[nH]c2ccc(Cl)cc2c1S(=O)(=O)c1ccccc1)C1CCCC1 [Example 47, N-[5-chloro-3-(phenylsulfonyl)-1H-indol-2-yl]cyclopentanecarboxamide] | < 1000 | 
CCCCNC(=O)Nc1[nH]c2ccc(Cl)cc2c1S(=O)(=O)c1ccccc1 [Example 48, N-butyl-N′-[5-chloro-3-(phenylsulfonyl)-1H-indol-2-yl]urea] | < 1000 | 
O=C(NCCc1ccccc1)Nc1[nH]c2ccc(Cl)cc2c1S(=O)(=O)c1ccccc1 [Example 49, N-[5-chloro-3-(phenylsulfonyl)-1H-indol-2-yl]-N′-(2-phenylethyl)urea] | 1000 to 10000 | 
O=C(NCc1cccc(F)c1)Nc1[nH]c2ccc(Cl)cc2c1S(=O)(=O)c1ccccc1 [Example 50, N-[5-chloro-3-(phenylsulfonyl)-1H-indol-2-yl]-N′-(3-fluorobenzyl)urea] | < 1000 | 
COc1cccc(CNCC(=O)Nc2[nH]c3ccc(Cl)cc3c2S(=O)(=O)c2ccccc2)c1 [Example 51, N^1-[5-chloro-3-(phenylsulfonyl)-1H-indol-2-yl]-N^2-(3-methoxybenzyl)glycinamide] | < 1000 | 
O=C(NCc1ccc(F)cc1)Nc1[nH]c2ccc(Cl)cc2c1S(=O)(=O)c1ccccc1 [Example 52, N-[5-chloro-3-(phenylsulfonyl)-1H-indol-2-yl]-N′-(4-fluorobenzyl)urea] | < 1000 | 
CS(=O)(=O)N1CCN(CC(=O)Nc2[nH]c3ccc(Cl)cc3c2S(=O)(=O)c2ccccc2)CC1 [Example 53, N-[5-chloro-3-(phenylsulfonyl)-1H-indol-2-yl]-2-[4-(methylsulfonyl)piperazin-1-yl]acetamide] | < 1000 | 
O=C(CN1CCC(c2ccccn2)C1)Nc1[nH]c2ccc(Cl)cc2c1S(=O)(=O)c1ccccc1 (centres unmarked) [Example 56, N-[5-chloro-3-(phenylsulfonyl)-1H-indol-2-yl]-2-(3-pyridin-2-ylpyrrolidin-1-yl)acetamide] | < 1000 | 
O=C(Nc1[nH]c2ccc(Cl)cc2c1S(=O)(=O)c1ccccc1)NC1CCCCC1 [Example 57, N-[5-chloro-3-(phenylsulfonyl)-1H-indol-2-yl]-N′-cyclohexylurea] | < 1000 | 
O=C(Nc1[nH]c2ccc(Cl)cc2c1S(=O)(=O)c1ccccc1)NC1CC1c1ccccc1 (centres unmarked) [Example 58, N-[5-chloro-3-(phenylsulfonyl)-1H-indol-2-yl]-N′-(2-phenylcyclopropyl)urea] | < 1000 | 
CC(NCC(=O)Nc1[nH]c2ccc(Cl)cc2c1S(=O)(=O)c1ccccc1)c1ccccc1 (centres unmarked) [Example 59, 2-{[5-chloro-3-(phenylsulfonyl)-1H-indol-2-yl]amino}-2-oxo-N-(1-phenylethyl)ethanamine] | < 1000 | 
O=C(Nc1[nH]c2ccc(Cl)cc2c1S(=O)(=O)c1ccccc1)C1CCCCC1 [Example 60, N-[5-chloro-3-(phenylsulfonyl)-1H-indol-2-yl]cyclohexanecarboxamide] | < 1000 | 
CN1CCN(CC(=O)Nc2[nH]c3ccc(Cl)cc3c2S(=O)(=O)c2ccccc2)CC1 [Example 61, N-[5-chloro-3-(phenylsulfonyl)-1H-indol-2-yl]-2-(4-methylpiperazin-1-yl)acetamide] | < 1000 | 
CC(C)NC(=O)Nc1[nH]c2ccc(Cl)cc2c1S(=O)(=O)c1ccccc1 [Example 62, N-[5-chloro-3-(phenylsulfonyl)-1H-indol-2-yl]-N′-isopropylurea] | < 1000 | 
O=C(COc1ccccc1)Nc1[nH]c2ccc(Cl)cc2c1S(=O)(=O)c1ccccc1 [Example 65, N-[5-chloro-3-(phenylsulfonyl)-1H-indol-2-yl]-2-phenoxyacetamide] | < 1000 | 
O=C(Nc1cc(F)cc(F)c1)Nc1[nH]c2ccc(Cl)cc2c1S(=O)(=O)c1ccccc1 [Example 66, N-[5-chloro-3-(phenylsulfonyl)-1H-indol-2-yl]-N′-(3,5-difluorophenyl)urea] | < 1000 | 
O=C(Nc1cccc(C(F)(F)F)c1)Nc1[nH]c2ccc(Cl)cc2c1S(=O)(=O)c1ccccc1 [Example 68, N-[5-chloro-3-(phenylsulfonyl)-1H-indol-2-yl]-N′-[3-(trifluoromethyl)phenyl]urea] | < 1000 | 
O=C(NCc1c(F)cccc1Cl)Nc1[nH]c2ccc(Br)cc2c1S(=O)(=O)N1CCCC1 [Example 95, N-[5-bromo-3-(pyrrolidin-1-ylsulfonyl)-1H-indol-2-yl]-N′-(2-chloro-6-fluorobenzyl)urea] | < 1000 | 
O=C(Nc1[nH]c2ccc(Br)cc2c1S(=O)(=O)N1CCCC1)N1CCC1 [Example 96, N-[5-bromo-3-(pyrrolidin-1-ylsulfonyl)-1H-indol-2-yl]azetidine-1-carboxamide] |  | 1000 to 10000
